The record followed here is PubChem BioAssay (NCI).

Each structure is given as a SMILES string.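 Step 1: Grow cells in 96-well plates. Step 2: Expose to compound for 48 hours at 5 concentrations. Step 3: Interpolate endpoints linearly; if unreached, use highest concentration. GI50: concentration for 50% inhibition of growth. TGI is the concentration that stops growth completely.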 Where only a bound is given, the exact number is not on record here.

The test system of the first assay is EKVX NSCLC. Kind of assay: growth of human tumour cells (NCI), 48 h.
Take `COc1cc(/C=C2\CCC(C)/C(=C\c3cc(OC)c(OC)c(OC)c3)C2=O)cc(OC)c1OC` (centres undefined): the TGI came to 16.3 µM.

As for `Cc1ccc2oc(=O)c(-c3ccccc3)nc2c1`, the TGI was > 100 µM.

Consider `O=C(O)/C=C\C(=O)Nc1ccc(S(=O)(=O)c2ccc(NC(=O)/C=C\C(=O)O)cc2)cc1`, for which the TGI is > 100 µM.

Turning to `C[C@]12CC[C@@H]3c4ccc(O)cc4CC[C@H]3[C@@H]1C/C(=C\c1ccc(C#N)cc1)C2=O`, the TGI was > 100 µM.

`O=[N+]([O-])/C(Cl)=C(\NCCN/C(C(Cl)=C(Cl)Cl)=C(/Cl)[N+](=O)[O-])C(Cl)=C(Cl)Cl`: the TGI was > 100 µM.

In the case of `S=C1NC2=C(CSC/C2=C\c2ccccc2)C(c2ccccc2)N1` (centres undefined), the TGI was > 100 µM.

`CSc1nc2c(ncn2C2OC(CO)C(O)C(O)C2O)c(=O)[nH]1` (centres undefined): the TGI is > 100 µM.

For `Nc1ccccc1C(=O)C(Br)C(Br)c1ccc2c(c1)OCO2` (centres undefined), the TGI was 52 µM.

`CCCCCCCCCCCC1CC(=O)NCCCN(C)CCCCN(C)CCCN1C` (centres undefined) returned a TGI of 3.2 µM.

In turn, `COc1cc(C2c3cc4c(cc3[C@@H](Nc3ccc5c(c3)OCO5)C3COC(=O)[C@H]23)OCO4)cc(OC)c1O` (some centres undefined) yielded a TGI of 16.3 µM.

For the next assay, the system named is HT29 colon. Put plainly: growth of human tumour cells (NCI), 48 h.
For `N#C/C(=C1\SC(N=Nc2ccc(Cl)cc2)C(=O)N1c1ccccc1)c1nc2ccccc2[nH]1` (centres undefined), the TGI was > 100 µM.

`CCOC(=O)c1c(SCCN2CCOCC2)n(-c2ccccc2)c(=S)n(-c2ccccc2)c1=O` displayed a TGI of 34.9 µM.

In the case of `O=C(NN1C(=O)CSC1c1cccc(F)c1)c1ccncc1` (centres undefined), the TGI was > 100 µM.

For the molecule `COc1cccc2c1OCC1Cc3ccccc3OC21` (centres undefined), the TGI was > 100 µM.

`C=CCN1C(=O)/C(=C/c2ccc(C)cc2)N=C1SC1OC(COC(C)=O)C(OC(C)=O)C(OC(C)=O)C1OC(C)=O` (centres undefined): the TGI was > 100 µM.

As to `Cc1cccc(/C(Br)=C2/OC(=O)c3ccccc32)c1`, the TGI is > 100 µM.

In the case of `CC#CC(O)(C(=O)OC1CC(C)N(C)C(C)(C)C1)C1CCCC1` (centres undefined), the TGI was > 100 µM.

As for `c1ccc2[nH]c(CNc3ccc(C4C[Se]N=N4)cc3)nc2c1` (centres undefined), the TGI is > 100 µM.

Turning to `COc1cc(/C=C2\CCC(C)/C(=C\c3cc(OC)c(OC)c(OC)c3)C2=O)cc(OC)c1OC` (centres undefined), the TGI was found to be 10.9 µM.

Take `C[C@H]1OC(=O)[C@@H]2N=NN(Cc3ccccc3)[C@H]12`: the TGI was > 100 µM.

Turning to `Cc1ccc2oc(=O)c(-c3ccccc3)nc2c1`, the TGI is > 100 µM.

`O=C(O)/C=C\C(=O)Nc1ccc(S(=O)(=O)c2ccc(NC(=O)/C=C\C(=O)O)cc2)cc1`: the TGI was > 100 µM.

Molecule `C[C@]12CC[C@@H]3c4ccc(O)cc4CC[C@H]3[C@@H]1C/C(=C\c1ccc(C#N)cc1)C2=O` had a TGI of 75.2 µM.

For the molecule `S=C1NC2=C(CSC/C2=C\c2ccccc2)C(c2ccccc2)N1` (centres undefined), the TGI was > 100 µM.

Take `COc1ccc(/C=N/n2c(C)nc3c(sc(=S)n3-c3ccccc3)c2=O)cc1`: the TGI is > 100 µM.

As for `CSc1nc2c(ncn2C2OC(CO)C(O)C(O)C2O)c(=O)[nH]1` (centres undefined), the TGI is > 100 µM.

Turning to `Nc1ccccc1C(=O)C(Br)C(Br)c1ccc2c(c1)OCO2` (centres undefined), the TGI came to 34.4 µM.

`CCCCCCCCCCCC1CC(=O)NCCCN(C)CCCCN(C)CCCN1C` (centres undefined) gave a TGI of 2.97 µM.

As for `CC(=O)Oc1c(C)c(C)c2c(c1C)CCC(C)(CC(=O)OCCCCCCCCCCC[P+](c1ccccc1)(c1ccccc1)c1ccccc1)O2` (centres undefined), the GI50 was 0.707 µM and the TGI amounted to 2.29 µM.

Molecule `COc1cc(C2c3cc4c(cc3[C@@H](Nc3ccc5c(c3)OCO5)C3COC(=O)[C@H]23)OCO4)cc(OC)c1O` (some centres undefined) came in with a TGI of 6.07 µM.

The test system of the next assay is HL-60(TB) leukemia. Kind of assay: growth of human tumour cells (NCI), 48 h.
For `N#C/C(=C1\SC(N=Nc2ccc(Cl)cc2)C(=O)N1c1ccccc1)c1nc2ccccc2[nH]1` (centres undefined), the TGI is > 100 µM.

Turning to `CCOC(=O)c1c(SCCN2CCOCC2)n(-c2ccccc2)c(=S)n(-c2ccccc2)c1=O`, the TGI is 49.2 µM.

For the molecule `O=C(NN1C(=O)CSC1c1cccc(F)c1)c1ccncc1` (centres undefined), the TGI was > 100 µM.

For `C=CCN1C(=O)/C(=C/c2ccc(C)cc2)N=C1SC1OC(COC(C)=O)C(OC(C)=O)C(OC(C)=O)C1OC(C)=O` (centres undefined), the TGI was > 100 µM.

Regarding `CC#CC(O)(C(=O)OC1CC(C)N(C)C(C)(C)C1)C1CCCC1` (centres undefined), the TGI was > 100 µM.

`c1ccc2[nH]c(CNc3ccc(C4C[Se]N=N4)cc3)nc2c1` (centres undefined): the TGI is 77.7 µM.

For `O=C(O)/C=C\C(=O)Nc1ccc(S(=O)(=O)c2ccc(NC(=O)/C=C\C(=O)O)cc2)cc1`, the TGI was > 100 µM.

Consider `O=[N+]([O-])/C(Cl)=C(\NCCN/C(C(Cl)=C(Cl)Cl)=C(/Cl)[N+](=O)[O-])C(Cl)=C(Cl)Cl`, for which the TGI stood at 87.5 µM.

In turn, `S=C1NC2=C(CSC/C2=C\c2ccccc2)C(c2ccccc2)N1` (centres undefined) came in with a TGI of 44.5 µM.

In turn, `COc1ccc(/C=N/n2c(C)nc3c(sc(=S)n3-c3ccccc3)c2=O)cc1` came in with a TGI of 61.2 µM.

Turning to `CSc1nc2c(ncn2C2OC(CO)C(O)C(O)C2O)c(=O)[nH]1` (centres undefined), the TGI is > 100 µM.

On to `Nc1ccccc1C(=O)C(Br)C(Br)c1ccc2c(c1)OCO2` (centres undefined), for which the TGI was > 100 µM.

Regarding `CCCCCCCCCCCC1CC(=O)NCCCN(C)CCCCN(C)CCCN1C` (centres undefined), the TGI was 5.32 µM.
